Data from patent publication US20250312327A1, “COMPOSITION FOR COMBINATION THERAPY, COMPRISING 2,3,5-SUBSTITUTED THIOPHENE COMPOUND” (PHAROS IBIO CO., LTD, priority 2021, published 2025).
Where two headings read alike, the source gives them in different places.

Columns and labels:
Assay type in all cases: cell-based
[1] = tested on: MolM13 leukemia cell line; experiment: CellTiter-Glo assay, drug administered alone; settings: Homo sapiens; PHI-101 administered alone; MolM 13; Table 7; read-out: IC50 PHI-101
Protocol: The first and second tests were performed in triplicate on the above cell lines while reducing the concentration of venetoclax by half each time from 100 μM, and the third test was performed in triplicate on the BDCM cell line while reducing the concentration of venetoclax by half each time from 100 μM, and performed in triplicate on HL-60, MolM13, MolM14, and MV4-11 cell lines while reducing the concentration of venetoclax by half each time from 2.5 μM. The fourth test was performed in triplicate on HL-60, MolM13, MolM14, and MV4-11 cell lines while reducing the concentration by half each time from 2.5 μM.
Specifically, in the first and second tests, a 10-fold diluted solution was prepared by dissolving 50 μL of 10 mM venetoclax in 450 μL of solvent. 250 μL of the solution was serially diluted ½, an 8E-tube was filled with 250 μL of each dilution, and 80 μL of each cell line was dispensed into each well of a 96-well plate. Thereafter, 10 μL of each cell line was dispensed using JANUS and incubated for 72 hours under CO2. Celltiter-Glo assay was performed and then IC50 was calculated.
In the third test, for the BCDM cell line, a 10-fold diluted solution was prepared by dissolving 15 μL of 10 mM venetoclax in 135 μL of solvent. 100 μL of the solution was serially diluted ½, an 8E-tube was filled with 100 μL of each dilution, and the cell line was dispensed into a 96-well plate. Thereafter, 25 μL of the cell line was dispensed using JANUS and incubated for 72 hours under CO2. Celltiter-Glo assay was performed and then IC50 was calculated. Meanwhile, for the HL-60, MolM13, MolM14, and MV4-11 cell lines, a 10-fold diluted solution was prepared by dissolving […] of solvent. 200 μL of the solution was serially diluted ½, an 8E-tube was filled with 200 μL of each dilution, and each of the cell lines was dispensed into a 96-well plate. Thereafter, 60 μL of each cell line was dispensed using JANUS and incubated for 72 hours under CO2. Celltiter-Glo assay was performed and then IC50 was calculated.
The fourth test was performed on HL-60, MolM13, MolM14, and MV4-11 cell lines in the same manner as the third test.
(§1) The first and second tests were performed in triplicate on the above cell lines while reducing the concentration of 5-azacytidine by half each time from 100 μM. Specifically, in the first and second tests, a 10-fold diluted solution was prepared by dissolving 15 μL of 20 mM 5-azacytidine in 285 μL of solvent. 250 μL of the solution was serially diluted ½, an 8E-tube was filled with 250 μL of each dilution, and 80 μL of each cell line (3,000 cells) was dispensed into each well of a 96-well plate. Thereafter, 10 μL of each cell line was dispensed using JANUS and incubated for 72 hours under CO2. Celltiter-Glo assay was performed and then IC50 was calculated.
as §1, with “cytarabine” for “5-azacytidine”, “50,000” for “100”, “10” for “15”, “50” for “20”, “490” for “285”

HL-60 leukemia cell line [2] = experiment: CellTiter-Glo assay, co-administration of PHI-101 and anticancer drug; settings: PHI-101 at the minimum concentration, 5-azacytidine co-administration test
Protocol: (§2) Specifically, in the first and second tests, a 10-fold diluted solution was prepared by dissolving […] of solvent. 500 μL of the solution was serially diluted ½, an 8E-tube was filled with 500 μL of each dilution, and 90 μL of each cell line was dispensed into each well of a 96-well plate. Thereafter, 10 μL of each cell line was dispensed using JANUS and pretreated for 30 minutes under CO2. […] Next, the cells were incubated for 72 hours under CO2, Celltiter-Glo assay was performed and then IC50 was calculated.
(§3) In the third and fourth tests, a 10-fold diluted solution was prepared by dissolving 5 μL of 50 mM PHI-101 in 495 μL of solvent. 250 μL of the solution was serially diluted ½, an 8E-tube was filled with 250 μL of each dilution, and 60 μL of each cell line was dispensed into each well of a 96-well plate. Thereafter, 10 μL of each cell line was dispensed using JANUS and pretreated for 30 minutes under CO2. […] Next, the cells were incubated for 72 hours under CO2, Celltiter-Glo assay was performed and then IC50 was calculated.
(§4) Specifically, in the first and second tests, for BDCM, HL-60, THP-1, and U937 cell lines, a 10-fold diluted solution was prepared by dissolving 5 μL of 50 mM PHI-101 in 495 μL of solvent. […] Next, the cells were incubated for 72 hours under CO2, Celltiter-Glo assay was performed and then IC50 was calculated.

U937 leukemia cell line [3] = experiment: as above; settings: PHI-101 at the minimum concentration, 5-azacytidine co-administration test
Protocol: as §2, §3, §4

BDCM leukemia cell line = experiment: CellTiter-Glo assay, drug administered alone; settings: PHI-101 administered alone
HL-60 leukemia cell line [4] = experiment: CellTiter-Glo assay, drug administered alone; settings: Homo sapiens, HL-60, PHI-101 administered alone
[5] = tested on: MolM14 leukemia cell line; experiment: CellTiter-Glo assay, drug administered alone; settings: Homo sapiens, MOLM-14, PHI-101 administered alone
[6] = tested on: MV4-11 leukemia cell line; experiment: CellTiter-Glo assay, drug administered alone; settings: Homo sapiens, PHI-101 administered alone, Table 7
THP-1 leukemia cell line = experiment: CellTiter-Glo assay, drug administered alone; settings: Homo sapiens, THP-1, PHI-101 administered alone
U937 leukemia cell line [7] = experiment: CellTiter-Glo assay, drug administered alone; settings: Homo sapiens, U-937, PHI-101 administered alone
[8] = Table 7, read-out: IC50 PHI-101
[9] = Table 10, read-out: IC50 PHI-101
[10] = Table 13, read-out: IC50 PHI-101

- IC50 [1]: 1 nM
- IC50 (BDCM leukemia cell line; [8]): 950 nM
- IC50 (BDCM leukemia cell line; [9]): 230 nM
- IC50 (BDCM leukemia cell line; [10]): 230 nM
- IC50 (HL-60 leukemia cell line [4]; [8]): 2080 nM
- IC50 (HL-60 leukemia cell line [4]; [9]): 2200 nM
- IC50 (HL-60 leukemia cell line [4]; [10]): 1100 nM
- IC50 ([5]; Table 7): 8 nM
- IC50 ([5]; Table 10): 8 nM
- IC50 ([5]; Table 13): 4 nM
- IC50 [6]: 1 nM
- IC50 (THP-1 leukemia cell line; [8]): 1530 nM
- IC50 (THP-1 leukemia cell line; [9]): 735 nM
- IC50 (THP-1 leukemia cell line; [10]): 735 nM
- IC50 (U937 leukemia cell line [7]; [8]): 1250 nM
- IC50 (U937 leukemia cell line [7]; [9]): 3400 nM
- IC50 (U937 leukemia cell line [7]; [10]): 850 nM
SMILES: NC(=O)Nc1cc(C#Cc2cccc(F)c2)sc1C(=O)N[C@H]1CCCNC1 [PHI-101, (S)-5-((3-fluorophenyl)ethynyl)-N-(piperidin-3-yl)-3-ureido-thiophene-2-carboxamide]
- inhibitory activity (HL-60 leukemia cell line [2]): ≤ 50%
- inhibitory activity (U937 leukemia cell line [3]): ≤ 50%
